The source of these data is ChEMBL document CHEMBL2046274, “Pyrazolo[4,3-c][1,2]benzothiazines 5,5-dioxide: a promising new class of Staphylococcus aureus NorA efflux pump inhibitors” (J Med Chem, 2012).

One may read the inhibition as how much of the control response was suppressed. One may read the pIC50 as the IC50 on a negative log10 scale, so that one unit is a factor of ten. A high value points to a low IC50. What is called MIC is the least concentration at which growth counts as inhibited. A higher MIC goes with weaker potency. For orientation: CC50 means the concentration giving 50% cytotoxicity. A lower CC50 goes with harm at low concentration.

pIC50: −log10 of the molar value. Converted amounts (≈) assume the structure as drawn. The source made the active and inactive calls. The rule behind the calls is not given here.

Data set [1] addresses T1, Quinolone resistance protein NorA (Staphylococcus aureus) (UniProt P0A0J7).
T1 sequence (whole entry): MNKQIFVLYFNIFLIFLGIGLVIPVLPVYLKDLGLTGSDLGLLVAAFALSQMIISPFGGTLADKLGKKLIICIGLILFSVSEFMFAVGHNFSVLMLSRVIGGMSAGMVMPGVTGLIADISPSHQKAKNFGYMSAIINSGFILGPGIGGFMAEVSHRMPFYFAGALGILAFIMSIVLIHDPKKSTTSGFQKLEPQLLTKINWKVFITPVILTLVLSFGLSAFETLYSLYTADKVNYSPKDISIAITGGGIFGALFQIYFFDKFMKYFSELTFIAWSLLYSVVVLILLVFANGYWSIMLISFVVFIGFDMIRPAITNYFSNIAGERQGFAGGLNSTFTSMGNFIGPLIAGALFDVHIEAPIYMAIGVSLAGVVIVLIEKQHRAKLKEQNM
As to the kind of experiment: Inhibition of norA-mediated EtBr efflux in Staphylococcus aureus SA1199B overexpressing norA and expressing A116E GrlA mutation at 50 uM by fluorometry.

Data set [2] concerns the target Quinolone resistance protein NorA (Staphylococcus aureus, UniProt P0A0J7, A116E). As to the kind of experiment: Inhibition of norA-mediated EtBr efflux in Staphylococcus aureus SA1199B overexpressing norA and expressing A116E GrlA mutation by fluorometry.
The test system of data set [3] is Staphylococcus aureus. The data set can be described thus: Antibacterial activity against Staphylococcus aureus SA1199B overexpressing norA and expressing A116E GrlA mutation by microdilution method. It counts as functional. Background: Dilution methods test growth across graded concentrations, often in twofold steps.
For data set [4], the system named is Staphylococcus aureus. As to the kind of experiment: Antibacterial activity against wild type Staphylococcus aureus SA1199 expressing norA by microdilution method. It counts as functional.
The target of data set [5] is T1, Quinolone resistance protein NorA (Staphylococcus aureus). As to the kind of experiment: Inhibition of norA in wild type Staphylococcus aureus SA1199 expressing assessed as potentiation of ciprofloxacin MIC by checkerboard assay.
The target is the same in data set [6]. As to the kind of experiment: Inhibition of norA overexpressed in Staphylococcus aureus SA1199B coexpressing A116E GrlA mutation assessed as potentiation of ciprofloxacin MIC by checkerboard assay.
The target is the same in data set [7]. As to the kind of experiment: Inhibition of norA overexpressed in Staphylococcus aureus SA1199B coexpressing A116E GrlA mutation potentiation of EtBr MIC at >6.25 ug/mL by checkerboard assay.
The test system of data set [8] is Staphylococcus aureus. As to the kind of experiment: Antibacterial activity against norA-deficient Staphylococcus aureus SAK1902 by microdilution method. Format: functional.
In data set [9] the test system is Staphylococcus aureus. The data set can be described thus: Antibacterial activity against Staphylococcus aureus SAK2378 overexpressing norA by microdilution method. It counts as functional.
The target of data set [10] is T1, Quinolone resistance protein NorA (Staphylococcus aureus). The data set can be described thus: Inhibition of norA in Staphylococcus aureus SA1199B overexpressing norA and expressing A116E GrlA mutation assessed as fold reduction in ciprofloxacin MIC at >6.25 ug/mL by checkerboard assay.
Data set [11] has the same target. As to the kind of experiment: Inhibition of norA overexpressed in Staphylococcus aureus SA1199B coexpressing A116E GrlA mutation assessed as fold reduction in ciprofloxacin MIC at >12.5 ug/mL by checkerboard assay.
Data set [12] concerns Staphylococcus aureus. As to the kind of experiment: Potentiation of CPX MIC against norA-deficient Staphylococcus aureus SAK1902 by checkerboard assay. It counts as functional, organism-based.
Data set [13] addresses T1, Quinolone resistance protein NorA (Staphylococcus aureus). As to the kind of experiment: Inhibition of norA overexpressed in Staphylococcus aureus SAK2378 assessed as potentiation of CPX MIC by checkerboard assay.
A short description of data set [14]: Cytotoxicity against human HepG2 cells after 24 hrs by LDH release assay. Format: cell-based. In general terms: Release of lactate dehydrogenase indicates damage to the cell membrane.

In the case of `Cc1ccc(-c2cc(C(F)(F)F)nn2-c2ccc(S(N)(=O)=O)cc2)cc1` [CELECOXIB], the inhibition in data set [1] amounted to 64.5%. Besides, the pIC50 in data set [2] is < 4.40. The MIC in data set [3] and in data set [4] was > 100 µg/mL each time. The inhibition entry in data set [5] and in data set [6] was “inactive” in each case. For the same molecule, in data set [7], the inhibition entry is “Active”.

Molecule `O=[N+]([O-])c1ccc(-n2nc(-c3ccc(Cl)cc3)c3c2-c2ccccc2S(=O)(=O)N3)cc1` registered an inhibition in [1] of 76.9%. Moreover, the pIC50 in data set [2] was 5.00. The MIC was determined as 50 µg/mL (≈ 110 µM) in data set [3], 50 µg/mL (≈ 110 µM) in data set [4], 25 µg/mL (≈ 55.2 µM) in [8] and 25 µg/mL (≈ 55.2 µM) in [9]. The inhibition result in data set [5] is “inactive”. Moreover, the inhibition result in data set [6] and in data set [13] was “Active” throughout. Further, the fold change (FC) in data set [10] is 8; in [11] it was 16. For the same molecule, in data set [12], the result was Active. The CC50 at 24 h in data set [14] is > 100 µg/mL.

In turn, `CN1c2c(-c3ccc(Cl)cc3)nn(-c3cccc(C(F)(F)F)c3)c2-c2ccccc2S1(=O)=O` gave an inhibition in data set [1] of 0%.

`O=S1(=O)Nc2c(-c3ccc(Cl)cc3)nn(-c3ccc(F)cc3)c2-c2ccccc21` displayed an inhibition in data set [1] of 15.5%.

`Fc1ccc([C@@H]2CCNC[C@H]2COc2ccc3c(c2)OCO3)cc1` [PAROXETINE]: the MIC in data set [3] is > 100 µg/mL; in data set [4], > 100 µg/mL; in data set [8], > 100 µg/mL; in data set [9] it was 100 µg/mL (≈ 304 µM). Further, the inhibition entry in [5] is “inactive”. In addition, the inhibition entry in [6] is “Active”.

As for `COC(=O)[C@H]1[C@H]2C[C@@H]3c4[nH]c5cc(OC)ccc5c4CCN3C[C@H]2C[C@@H](OC(=O)c2cc(OC)c(OC)c(OC)c2)[C@@H]1OC` [RESERPINE], the MIC in [3], in data set [4], in data set [8] and in [9] was > 100 µg/mL in each case. Further, the inhibition result in data set [5] is “inactive”. Also, the inhibition result in data set [6] is “Active”.

On to `O=C(O)c1cn(C2CC2)c2cc(N3CCNCC3)c(F)cc2c1=O` [CIPROFLOXACIN], for which the MIC worked out at 10 µg/mL (≈ 30.2 µM) in data set [3], 0.63 µg/mL (≈ 1.9 µM) in data set [4], 0.31 µg/mL (≈ 0.936 µM) in data set [8] and 2.5 µg/mL (≈ 7.54 µM) in data set [9].

In [1], `NS(=O)(=O)c1ccc(-n2nc(-c3ccc(Cl)cc3)c3c2-c2ccccc2S(=O)(=O)N3)cc1` returned an inhibition of 29.8%.

Molecule `O=S1(=O)Nc2c(-c3ccc(Cl)cc3)nn(-c3cccc(F)c3)c2-c2ccccc21` registered an inhibition in data set [1] of 33.9%.

As for `CS(=O)(=O)Nc1ccc(-n2nc(-c3ccc(Cl)cc3)c3c2-c2ccccc2S(=O)(=O)N3)cc1`, in [1], the inhibition was found to be 19.2%.
